What all share (assay type): functional
The subject of experiment [1] is SK-MEL-2. Briefly: Cytotoxicity against human SK-MEL-2 cells assessed as cell growth at 0.01 uM after 48 hrs by sulforhodamine B assay relative to control. The following applies: SK-MEL-2, 48 h, read-out: Activity.
The test system of experiment [2] is HOP-92. As to the kind of experiment: Cytotoxicity against human HOP92 cells assessed as growth inhibition after 48 hrs by sulforhodamine B assay. The following applies: HOP-92, 48 h; for CC50: read-out: LC50 (the source's name). (Sulforhodamine B stains cellular protein and so reports cell mass.)
The subject of experiment [3] is HOP-92. As to the kind of experiment: Cytotoxicity against human HOP92 cells assessed as cell growth at 10 uM after 48 hrs by sulforhodamine B assay relative to control. The following applies: HOP-92, 48 h, read-out: Activity.
The subject of experiment [4] is SF-295. As to the kind of experiment: Cytotoxicity against human SF295 cells assessed as cell growth at 10 uM after 48 hrs by sulforhodamine B assay relative to control. The following applies: SF-295, 48 h, read-out: Activity.
Experiment [5] has as its system SF-295. Briefly: Cytotoxicity against human SF295 cells assessed as growth inhibition after 48 hrs by sulforhodamine B assay. The following applies: SF-295, 48 h.
Experiment [6] relates to SF-295. As to the kind of experiment: Cytotoxicity against human SF295 cells assessed as cell growth at 1 uM after 48 hrs by sulforhodamine B assay relative to control. The following applies: SF-295, 48 h, read-out: Activity.
For experiment [7], the system named is SK-MEL-2. Briefly: Cytotoxicity against human SK-MEL-2 cells assessed as cell growth at 100 uM after 48 hrs by sulforhodamine B assay relative to control. The following applies: SK-MEL-2, 48 h, read-out: Activity.
Experiment [8] deals with HOP-92. Briefly: Cytotoxicity against human HOP92 cells assessed as cell growth at 0.1 uM after 48 hrs by sulforhodamine B assay relative to control. The following applies: HOP-92, 48 h, read-out: Activity.
The test system of experiment [9] is SK-MEL-2. Briefly: Cytotoxicity against human SK-MEL-2 cells assessed as cell growth at 0.1 uM after 48 hrs by sulforhodamine B assay relative to control. The following applies: SK-MEL-2, 48 h, read-out: Activity.
In experiment [10] the test system is LOX IMVI. As to the kind of experiment: Cytotoxicity against human LOXIMVI cells assessed as cell growth at 10 uM after 48 hrs by sulforhodamine B assay relative to control. The following applies: read-out: Activity.
The subject of experiment [11] is LOX IMVI. Briefly: Cytotoxicity against human LOXIMVI cells assessed as cell growth at 0.01 uM after 48 hrs by sulforhodamine B assay relative to control. The following applies: read-out: Activity.
In experiment [12] the test system is LOX IMVI. As to the kind of experiment: Cytotoxicity against human LOXIMVI cells assessed as cell growth at 100 uM after 48 hrs by sulforhodamine B assay relative to control. The following applies: read-out: Activity.
Experiment [13] has as its system LOX IMVI. As to the kind of experiment: Cytotoxicity against human LOXIMVI cells assessed as cell growth at 0.1 uM after 48 hrs by sulforhodamine B assay relative to control. The following applies: read-out: Activity.
Experiment [14] concerns SF-295. Briefly: Cytotoxicity against human SF295 cells assessed as cell growth at 0.01 uM after 48 hrs by sulforhodamine B assay relative to control. The following applies: SF-295, 48 h, read-out: Activity.
Experiment [15] concerns SK-MEL-2. Briefly: Cytotoxicity against human SK-MEL-2 cells assessed as cell growth at 10 uM after 48 hrs by sulforhodamine B assay relative to control. The following applies: SK-MEL-2, 48 h, read-out: Activity.
Experiment [16] relates to SK-MEL-2. Briefly: Cytotoxicity against human SK-MEL-2 cells assessed as cell growth at 1 uM after 48 hrs by sulforhodamine B assay relative to control. The following applies: SK-MEL-2, 48 h, read-out: Activity.
In experiment [17] the test system is HOP-92. As to the kind of experiment: Cytotoxicity against human HOP92 cells assessed as cell growth at 0.01 uM after 48 hrs by sulforhodamine B assay relative to control. The following applies: HOP-92, 48 h, read-out: Activity.
Experiment [18] relates to HOP-92. Briefly: Cytotoxicity against human HOP92 cells assessed as cell growth at 1 uM after 48 hrs by sulforhodamine B assay relative to control. The following applies: HOP-92, 48 h, read-out: Activity.
Experiment [19] concerns HOP-92. As to the kind of experiment: Cytotoxicity against human HOP92 cells assessed as cell growth at 100 uM after 48 hrs by sulforhodamine B assay relative to control. The following applies: HOP-92, 48 h, read-out: Activity.
The test system of experiment [20] is SF-295. Briefly: Cytotoxicity against human SF295 cells assessed as cell growth at 100 uM after 48 hrs by sulforhodamine B assay relative to control. The following applies: SF-295, 48 h, read-out: Activity.
The subject of experiment [21] is LOX IMVI. As to the kind of experiment: Cytotoxicity against human LOXIMVI cells assessed as cell growth at 1 uM after 48 hrs by sulforhodamine B assay relative to control. The following applies: read-out: Activity.
The test system of experiment [22] is SF-295. As to the kind of experiment: Cytotoxicity against human SF295 cells assessed as cell growth at 0.1 uM after 48 hrs by sulforhodamine B assay relative to control. The following applies: SF-295, 48 h, read-out: Activity.
In experiment [23] the test system is SK-OV-3. As to the kind of experiment: Cytotoxicity against human SKOV3 cells assessed as cell growth at 100 uM after 48 hrs by sulforhodamine B assay relative to control. The following applies: SK-OV-3, 48 h, read-out: Activity.
In experiment [24] the test system is CAKI-1. Briefly: Cytotoxicity against human Caki1 cells assessed as cell growth at 0.01 uM after 48 hrs by sulforhodamine B assay relative to control. The following applies: CAKI-1, 48 h, read-out: Activity.
Experiment [25] has as its system CAKI-1. Briefly: Cytotoxicity against human Caki1 cells assessed as growth inhibition after 48 hrs by sulforhodamine B assay. The following applies: CAKI-1, 48 h.
The subject of experiment [26] is CAKI-1. As to the kind of experiment: Cytotoxicity against human Caki1 cells assessed as cell growth at 10 uM after 48 hrs by sulforhodamine B assay relative to control. The following applies: CAKI-1, 48 h, read-out: Activity.
Experiment [27] deals with CAKI-1. Briefly: Cytotoxicity against human Caki1 cells assessed as cell growth at 1 uM after 48 hrs by sulforhodamine B assay relative to control. The following applies: CAKI-1, 48 h, read-out: Activity.
Experiment [28] deals with CAKI-1. Briefly: Cytotoxicity against human Caki1 cells assessed as cell growth at 100 uM after 48 hrs by sulforhodamine B assay relative to control. The following applies: CAKI-1, 48 h, read-out: Activity.
Experiment [29] has as its system CAKI-1. Briefly: Cytotoxicity against human Caki1 cells assessed as cell growth at 0.1 uM after 48 hrs by sulforhodamine B assay relative to control. The following applies: CAKI-1, 48 h, read-out: Activity.
Experiment [30] concerns SNB-75. As to the kind of experiment: Cytotoxicity against human SNB75 cells assessed as growth inhibition after 48 hrs by sulforhodamine B assay. The following applies: SNB-75, 48 h.

For orientation: GI50 means the concentration at which growth is held to half of that of the control. Broadly, the TGI is the concentration giving total growth inhibition. As a reminder, the LC50 is the concentration lethal to half of the exposed cells or organisms. As for `COc1cc(-c2cc(/C=C/C(=O)c3ccc(N)cc3)[nH]n2)cc(OC)c1OC`, the growth at 0.01 µM came to 106% in experiment [1], 98% in [11], 88% in experiment [14] and 88% in experiment [17]. Moreover, the values for the GI50 in experiment [2] and in experiment [5] were 3.68 µM and 2.55 µM, respectively. Moreover, the TGI was 27.6 µM in experiment [2] and 10.9 µM in [5]. The CC50 in [2] is more than 100 µM. Besides, the growth at 10 µM is 28% in experiment [3], 4% in experiment [4], -78% in experiment [10] and -15% in experiment [15]. Further, the LC50 in experiment [5] was found to be 34.8 µM. Also, the growth at 1 µM in experiment [6] was 82%; in experiment [16] it was 104%; in experiment [18], 79%; in experiment [21] it was 83%. Besides, the growth at 100 µM in experiment [7] was -85%; in experiment [12], -82%; in experiment [19], -35%; in experiment [20] it was -95%; in [23] it was -98%. The growth at 0.1 µM is 82% in [8], 111% in experiment [9], 99% in experiment [13] and 89% in experiment [22].

Take `COc1cc(-c2cc(/C=C/C(=O)c3ccc(F)c(F)c3)[nH]n2)cc(OC)c1OC`: the growth at 0.01 µM in experiment [1] turned out to be 93%; in [11], 93%; in [24], 95%. Besides, the growth at 100 µM in experiment [7] was -64%; in experiment [12], -86%; in experiment [28], 3%; in experiment [23], -5%. Moreover, the growth at 0.1 µM was 98% in experiment [9], 94% in experiment [13] and 94% in [29]. In addition, the growth at 10 µM is 8% in [10], -28% in [15] and 12% in experiment [26]. Besides, the growth at 1 µM in experiment [16] was found to be 94%; in experiment [21] it was 92%; in experiment [27], 84%. Also, in [25], the LC50 is more than 100 µM. Moreover, in experiment [25], the TGI is more than 100 µM.

Regarding `COc1ccc(-c2cc(/C=C/C(=O)c3ccc4c(c3)OCO4)[nH]n2)cc1OC`, the GI50 was determined as 1.97 µM in experiment [2], 1.16 µM in experiment [30] and 1.6 µM in experiment [5].

Regarding `COc1cc(-c2cc(/C=C/C(=O)c3ccc(Cl)c(Cl)c3)[nH]n2)cc(OC)c1OC`, the growth at 0.01 µM in experiment [1] was 94%; in experiment [11], 96%; in [24] it was 91%; in [17] it was 89%. The TGI in experiment [2] was 8.25 µM; in experiment [25] it was more than 100 µM. Also, the CC50 in experiment [2] was determined as 75.9 µM. The growth at 10 µM in [3] was -8%; in experiment [10] it was 16%; in experiment [15], 68%; in experiment [26], 62%. Also, the growth at 100 µM in [7] is -60%; in experiment [12], -58%; in [19], -56%; in [28], 11%; in experiment [23] it was -70%. In addition, the growth at 0.1 µM came to 90% in experiment [8], 88% in experiment [9], 92% in experiment [13] and 91% in [29]. Moreover, the growth at 1 µM in [16] was determined as 99%; in experiment [18], 89%; in experiment [21] it was 88%; in [27], 87%. Further, the 50% lethal concentration (LC50) in experiment [25] is more than 100 µM.

For the origin of these results see ChEMBL document CHEMBL4138123, “Design, synthesis and biological evaluation of novel pyrazolochalcones as potential modulators of PI3K/Akt/mTOR pathway and inducers of apoptosis in breast cancer cells” (Eur J Med Chem, 2017).
